Measurements published in patent US20130231365A1, “Treatment of Inflammation with Certain Alpha-7 Nicotinic Acid Receptor Agonists in Combination with Acetylcholinesterase Inhibitors” (priority 2010, published 2013).

Molecular target: T1, human alpha7 receptor (Homo sapiens, UniProt P36544)
T1 construct: expressed in transfected cells; host or cells: Xenopus laevis oocytes (cDNA injected into the germinal vesicle)
Assay: Acetylcholine-evoked currents in Xenopus oocytes with co-application of the alpha7 agonist
Assay type: cell-based
Description: FIG. 1 depicts a protocol for administering acetylcholine and (R)-7-chloro-N-(quinuclidin-3-yl)benzo[b]thiophene-2-carboxamide hydrochloride monohydrate to Xenopus oocytes.
FIG. 2 depicts the results of an assay showing the action of acetylcholine and (R)-7-chloro-N-(quinuclidin-3-yl)benzo[b]thiophene-2-carboxamide hydrochloride monohydrate.
In the study described below currents were measures in Xenopus oocytes. Acetylcholine at 40 micromolar was administered prior to administration of (R)-7-chloro-N-(quinuclidin-3-yl)benzo[b]thiophene-2-carboxamide is (R)-7-chloro-N-(quinuclidin-3-yl)benzo[b]thiophene-2-carboxamide hydrochloride monohydrate at 0.3 nM using the protocol depicted in FIG. 1. Currents were normalized to unity versus the average acetylcholine-evoked current measured during the stabilization period (4 time points).
The EC50 for an alpha7 receptor agonist can be measured using Xenopus oocytes as described previously (Boess et al. 2007 J Pharm Exp Therap 321:716; Methfessel et al., 1986 Pflueg Arch Eur J Physiol 407:577-588; Schnizler et at 2003 Receptors Channels 9:41-48). […] Solutions of test compounds in normal frog Ringer's solution are superfused through the recording chamber for 20 s while the voltage-clamp current is recorded. […] By testing with various concentration of the alpha7 receptor agonist the EC50 for agonism can be determined.

T1 sequence (P36544 23-502): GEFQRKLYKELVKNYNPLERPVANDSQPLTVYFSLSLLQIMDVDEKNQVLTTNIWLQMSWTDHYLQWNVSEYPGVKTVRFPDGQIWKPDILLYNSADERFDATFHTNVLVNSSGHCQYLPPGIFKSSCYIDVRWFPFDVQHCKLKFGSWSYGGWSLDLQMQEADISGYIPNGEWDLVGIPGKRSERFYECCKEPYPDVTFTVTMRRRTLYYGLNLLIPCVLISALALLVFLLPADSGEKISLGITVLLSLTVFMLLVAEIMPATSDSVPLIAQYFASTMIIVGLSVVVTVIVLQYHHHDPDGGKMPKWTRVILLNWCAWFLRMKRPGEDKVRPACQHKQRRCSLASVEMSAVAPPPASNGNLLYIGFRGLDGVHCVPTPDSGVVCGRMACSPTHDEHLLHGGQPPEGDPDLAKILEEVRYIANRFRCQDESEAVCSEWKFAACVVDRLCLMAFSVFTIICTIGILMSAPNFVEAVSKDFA

Cl.O=C(N[C@H]1CN2CCC1CC2)c1cc2cccc(Cl)c2s1 [(R)-7-chloro-N-(quinuclidin-3-yl)benzo[b]thiophene-2-carboxamide hydrochloride monohydrate]
acetylcholine-evoked current, normalized to unity versus the average current of the stabilization period (acetylcholine 40 micromolar given before compound at 0.3 nM, after 8 and 16 minutes incubation, average of 3 cells, FIG. 2): large current increase
effect when administered with acetylcholine (very low concentrations of compound, well below the expected EC50): synergistic effect
